Data from patent US10815297B2, “Antagonists of IL17C for the treatment of inflammatory disorders” (MorphoSys AG, priority 2011, dated 2020).

What was measured:
[1] = test system: TS-exposed mice (C57BL/6J), pulmonary inflammation; test: Tobacco smoke model, cells recovered in bronchoalveolar lavage; format: in vivo, mouse
Protocol: The response consisted of significant increases in the numbers of macrophages, epithelial cells, neutrophils and lymphocytes recovered in BAL.
Vehicle (PBS), MOR12743 and MOR03207 were administered i.p., 1 h prior to TS-exposure on days 1, 4, 7 and 10 of the study. Roflumilast was administered p.o., 1 h prior to each TS-exposure.
In this exposure protocol, mice were exposed in groups of 5 in clear polycarbonate chambers (27 cm×16 cm×12 cm). The TS from ‘Marlboro 100’ cigarettes was allowed to enter the exposure chambers at a flow rate of 100 mL/min. In order to minimise any potential problems caused by repeated exposure to a high level of TS, the exposure period to TS was increased initially from 25 minutes at the start of the study (day 1) to a maximum of 45 minutes on day 3. The exposure schedule used in this study was as follows:
The trachea was cannulated using a 10 mm long Luer fitting stainless steel cannula. Phosphate buffered saline (PBS) was used as the lavage fluid. A volume of 0.4 mL was gently instilled and withdrawn 3 times using a 1 mL syringe and then placed in an Eppendorf tube and kept on ice prior to subsequent determinations.
Lavage fluid was separated from cells by centrifugation (6 min at 3400 rpm, RCF=3070×g—‘Eppendorf Mini Spin’) and the supernatant decanted and frozen for possible subsequent analysis. The cell pellet was re-suspended in a known volume of PBS and total cell numbers calculated by counting a stained (Turks stain) aliquot under a microscope using a haemocytometer.
The residual cell pellet was diluted to approximately 10^5 cells per mL. A volume of 500 μl was placed in the funnel of a cytospin slide and centrifuged for 8 min at 800 rpm, RCF=72.26×g (Shandon Cytospin 3). The slide was air-dried and stained using Wrights/Giemsa stain as per the proprietary instructions. When dried and cover-slipped, differential cell-counts were performed using light microscopy. Approximately 400 cells were counted for each slide. Cells were identified using standard morphometric techniques.
In this study, 4 groups of mice were subjected to daily TS-exposure for 11 days and were sacrificed on the 12th day, 24 h after the final TS-exposure. Three groups received either vehicle (D-PBS), MOR12743 or MOR03207, i.p., 1 h prior to TS-exposure on days 1, 4, 7 and 10 of the study. One group received Roflumilast, p.o., 1 h prior to each TS-exposure. A further group was exposed to air for 11 consecutive days and sacrificed on the 12th day, 24 h after the final air-exposure. This group received vehicle (D-PBS), i.p., 1 h prior to exposure on days 1, 4, 7 and 10 of the study. For all groups n=10.
All mice were killed on day 12, by intra-peritoneal barbiturate anaesthetic overdose, 24 h after final exposure to air or TS. A blood sample was taken over heparin from the sub-clavian vein and the plasma separated by centrifugation and stored at −40° C. A BAL was performed using 0.4 mL of phosphate buffered saline (PBS). Cells recovered from the BAL were used for the total cell and differential cell counts. The BAL supernatants and remaining cell pellet were stored at −40° C. and −80° C. respectively for possible future analysis. Following BAL, the cannula was left tied in place. The heart and lungs were removed after gently opening the thorax and cutting down either side of the sternum and ribs. The left lobe was tied off, removed, snap-frozen and stored at −80° C. The right lobe was inflated with 10% phosphate buffered formalin (PBF) to a pressure of 18 cm of PBF for 20 minutes. The trachea was then ligated below the cannula and the cannula removed. The heart, lung & trachea were immersed in PBF.
The data were therefore initially subjected to a one-way analysis of variance test (ANOVA), followed by a Bonferroni correction for multiple comparisons in order to test for statistically significant differences between treatment groups. A “p” value of <0.05 was considered to be statistically significant. […]

[2] = test system: mouse CIA model (DBA1/J mice); test: Mouse collagen induced arthritis (CIA) model, therapeutic protocol; format: in vivo; conditions: 10 mg/kg, 3x week, i.p., day 31 to day 46
Protocol: DBA1/J mice (male, 6-7 weeks old, approx 20 gram) were obtained from Centre d'Elevage Regional Janvier (Laval, France). Mice were kept on a 12 hr light/dark cycle (0700-1900). Temperature was maintained at 22° C., and food and water were provided ad libitum.
One day before the experiment, CII solution (2 mg/mL) was prepared with 0.05 M acetic acid and stored at 4° C. Just before the immunization, equal volumes of adjuvant […] and CII were mixed by a homogenizer in a pre-cooled glass bottle in an ice water bath. Extra adjuvant and prolonged homogenization may be required if an emulsion is not formed. 0.1 mL of the emulsion was injected intradermally at the base of the tail of each mouse on day 1, a second booster intradermal injection (CII solution at 2 mg/mL in […] 0.1 mLemulsion) was performed on day 21. This immunization method was modified from published methods (Brand et al, 2007, Collagen-induced arthritis. Nature Protocols; vol 2 (5): 1269-1275; Lin et al., 2007, Anti-rheumatic activities of histone deacetylase (HDAC) inhibitors in vivo in collagen-induced arthritis in rodents. Br J Pharmacol. April; 150 (7):829-31).
The therapeutic effects of the antibodies were tested in the mouse CIA model. Mice were randomly divided into equal groups and each group contained 10 mice. All mice were immunized on day 1 and boosted on day 21. Therapeutic dosing lasted from day 31 to day 46. The negative control group was treated with vehicle (PBS) and the positive control group with Enbrel (10 mg/kg, 3× week, i.p.). An antibody of interest was tested at 10 mg/kg, i.p. 3 times per week.
Anti-IL17C antibodies were administered i.p. three times a week at 10 mg/kg. […]
Arthritis was scored according to the method of Khachigian 2006 (Collagen antibody-induced arthritis. (2006) Nature Protocols 1, 2512-6), Lin et al 2007 (supra); Nishida et al. 2004 (Histone deacetylase inhibitor suppression of autoantibody-mediated arthritis in mice via regulation of p16INK4a and p21(WAF1/Cip1) expression. Arthritis Rheum. 10: 3365-76); and Brand et al. 2007 (supra). […]

mouse IL17C = molecular target: T1, mouse IL17C (Mus musculus, UniProt Q8K4C5); test: ELISA titration on mouse IL17C (EC50 determination); format: binding
T1 construct: purchased R&D Systems 2306-ML/CF
T1 sequence (Q8K4C5 17-194): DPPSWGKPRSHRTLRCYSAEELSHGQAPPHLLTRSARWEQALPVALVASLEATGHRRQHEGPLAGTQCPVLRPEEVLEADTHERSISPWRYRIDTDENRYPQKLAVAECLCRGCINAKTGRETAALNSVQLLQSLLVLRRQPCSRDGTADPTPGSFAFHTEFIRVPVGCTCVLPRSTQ
Protocol: All purified chimeric human-mouse chimeric IgG2a antibodies were titrated on mouse IL17C for EC50 determination in ELISA starting with a concentration of 100 nM. EC50 values on mouse IL17C were determined in 1 to 3 independent experiments.

Molecule: O=C(Nc1c(Cl)cncc1Cl)c1ccc(OC(F)F)c(OCC2CC2)c1 [Roflumilast, reference compound]
- Inhibition of epithelial cells in BAL ([1]; 5 mg/kg p.o. q.d.): 50%
- Inhibition of lymphocytes in BAL ([1]; 5 mg/kg p.o. q.d.): 54%
- Inhibition of macrophages in BAL ([1]; 5 mg/kg p.o. q.d.): 13%
- Inhibition of neutrophils in BAL ([1]; 5 mg/kg p.o. q.d.): 56%
- Inhibition of total cells in BAL ([1]; 5 mg/kg p.o. q.d., 1 h prior to each TS-exposure): 32%
- inhibition of total cell numbers recovered in the BAL (in words) ([1]; 5 mg/kg p.o., 1 h prior to each TS-exposure): significantly inhibited

Molecule: etanercept [Enbrel, reference compound]
- inhibition of inflammation / disease progression (clinical score) [2]: did inhibit

B1: MOR12757: anti-mouse IL17C HuCAL antibody; CDRs SEQ ID NO: 121-126, VL 127, VH 128 (antibody, V domains shown)
VH: EVQLLESGGGLVQPGGSLRLSCAASGFTFSSYAMSWVRQAPGKGLEWVSFISSGGSETFYADSVKGRFTISRDNSKNTLYLQMNSLRAEDTAVYYCARVSYIYYYSWVLFDVWGQGTLVTVSS
VL: DIQMTQSPSSLSASVGDRVTITCRASQGIGTALNWYQQKPGKAPKLLIYDVSSLQSGVPSRFSGSGSGTDFTLTISSLQPEDFATYYCQQGLFLPFTFGQGTKVEIKRT
modifications: VH; VL
- binding activity with purified IgG2a (mouse IL17C): could not be confirmed

B2: MOR12756: anti-mouse IL17C HuCAL antibody; CDRs SEQ ID NO: 111-116, VL 117, VH 118 (antibody, V domains shown)
VH: QVQLQQSGPGLVKPSQTLSLTCAISGDSVSDNSVAWNWIRQSPSRGLEWLGRIYYRSKWYNDYAVSVKSRITINPDTSKNQFSLQLNSVTPEDTAVYYCAREVLLFPARSYGTGMDVWGQGTLVTVSS
VL: DIELTQPPSVSVSPGQTASITCSGDNLPSKYVHWYQQKPGQAPVLVIYDDNERPSGIPERFSGSNSGNTATLTISGTQAEDEADYYCGVADMPRQMKVFGGGTKLTVLGQ
modifications: VH; VL
- binding activity with purified IgG2a (mouse IL17C): could not be confirmed

B3: MOR12755: anti-mouse IL17C HuCAL antibody; CDRs SEQ ID NO: 101-106, VL 107, VH 108 (antibody, V domains shown)
VH: QVQLQQSGPGLVKPSQTLSLTCAISGDSVSSNSAAWNWIRQSPSRGLEWLGKTYYRSTWSNDYAESVKSRITINPDTSKNQFSLQLNSVTPEDTAVYYCAREMDSLTRSASSIAFDYWGQGTLVTVSS
VL: DIELTQPPSVSVSPGQTASITCSGDNLREHYVHWYQQKPGQAPVLVIYDDTERPSGIPERFSGSNSGNTATLTISGTQAEDEADYYCATRDWSNVVFGGGTKLTVLGQ
modifications: VH; VL
- binding activity with purified IgG2a (mouse IL17C): could not be confirmed

B4: MOR12758: anti-mouse IL17C HuCAL antibody; CDRs SEQ ID NO: 131-136, VL 137, VH 138 (antibody, V domains shown)
VH: EVQLVQSGAEVKKPGESLKISCKGSGYSFTDYWISWVRQMPGKGLEWMGAIDPTDSYTRYSPSFQGQVTISADKSISTAYLQWSSLKASDTAMYYCARWYTSHPYYEGRYPMDVWGQGTLVTVSS
VL: DIALTQPASVSGSPGQSITISCTGTSSDVGHYNYVSWYQQHPGKAPKLMIYGVTKRPSGVSNRFSGSKSGNTASLTISGLQAEDEADYYCASADEWPTLHVFGGGTKLTVLGQ
modifications: VH; VL
- binding activity with purified IgG2a (mouse IL17C): could not be confirmed
